The IC50 is the concentration at which inhibition is half-maximal.

The first assay relates to A375 cells. As to the kind of experiment: A375 cell proliferation assay (2), resazurin, 384-well. As to conditions: Homo sapiens, A-375, inhibition of cell proliferation, 67-72 h. It counts as cell-based. The procedure: A375 Cell Proliferation Assay (2)
A375 cells (catalog (#CRL-1619) are obtained from the American Type Culture Collect (ATTC, Manassas, VA). Briefly, cells were grown in DMEM High Glucose supplemented with 10% characterized fetal bovine serum (Invitrogen, Carlsbad, CA) and 1% Penicillin/Streptomycin/L-Glutamine at 37° C., 5% CO2, and 95% humidity. Cells are expanded until reaching 70-95% confluency at which point they are sub-cultured or harvested for assay use. Using the Beckman Coulter Echo 650, a serial dilution of test compound is dispensed into a 384-well black clear bottom plate in triplicate. Six hundred twenty-five cells are added per well in 50 μL complete growth medium in the 384-well plate. Plates are incubated for 67-72 h at 37° C., 5% CO2, and 95% humidity. At the end of the incubation, 10 μL of a 440 μM solution of resazurin (Sigma, St. Louis, MO) in PBS is added to each well of the plate and plates are incubated for an additional 3-6 h at 37° C., 5% CO2, and 95% humidity. Plates are read on a Synergy2 or equivalent reader (Biotek, Winooski VT) using an excitation of 540 nm and an emission of 600 nm. Data is analyzed using Prism software (GraphPad, San Diego, CA) to calculate IC50 values.
Background: Alamar Blue is a resazurin reagent that responds to reducing activity.
`Cc1ccc(NC(=O)N2CC[C@H](C(F)(F)F)C2)cc1-c1cncc(-c2cc(NC(=O)C3CC3)ncn2)c1` [Example 195]: the IC50 lay within 100 to 500 nM.

Regarding `Cc1cc(F)c(NC(=O)N2CC[C@H](C(F)(F)F)C2)cc1-c1cncc(-c2cc(NC(=O)C3CC3)ncn2)c1` [Example 216], the half-maximal inhibitory concentration (IC50) was 100 to 500 nM.

The test system of a further assay is H2405 cells. As to the kind of experiment: H2405 cell proliferation assay (2), resazurin, 384-well. It counts as cell-based. As to conditions: Homo sapiens, NCI-H2405, inhibition of cell proliferation, 67-72 h. The procedure:
H2405 Cell Proliferation Assay (2)
H2405 cells (catalog #CRL-5994) are obtained from the American Type Culture Collect (ATTC, Manassas, VA). Briefly, cells were grown in RPMI 1640 supplemented with 5% characterized fetal bovine serum (Invitrogen, Carlsbad, CA) and 1% Penicillin/Streptomycin/L-Glutamine at 37° C., 5% CO2, and 95% humidity. Cells are expanded until reaching 70-95% confluency at which point they are sub-cultured or harvested for assay use. A serial dilution of test compound is dispensed into a 384-well black clear bottom plate in triplicate. Seven hundred fifty cells are added per well in 50 μL complete growth medium in the 384-well plate. Plates are incubated for 67-72 h at 37° C., 5% CO2, and 95% humidity. At the end of the incubation, 10 μL of a 440 μM solution of resazurin (Sigma, St. Louis, MO) in PBS is added to each well of the plate and plates are incubated for an additional 5-6 h at 37° C., 5% CO2, and 95% humidity. Plates are read on a Synergy2 or equivalent reader (Biotek, Winooski VT) using an excitation of 540 nm and an emission of 600 nm. Data is analyzed using Prism software (GraphPad, San Diego, CA) to calculate IC50 values
Turning to `Cc1ccc(NC(=O)N2CC[C@H](C(F)(F)F)C2)cc1-c1cncc(-c2cc(NC(=O)C3CC3)ncn2)c1` [Example 195], the IC50 is at most 100 nM.

With `Cc1cc(F)c(NC(=O)N2CC[C@H](C(F)(F)F)C2)cc1-c1cncc(-c2cc(NC(=O)C3CC3)ncn2)c1` [Example 216], the IC50 was at most 100 nM.

The test system of another assay is WM3629 cells. The experiment in a line: WM3629 cell proliferation assay (1), resazurin, 96-well. In kind it is cell-based. As to conditions: inhibition of cell proliferation. The procedure:
WM3629 Cell Proliferation Assay (1)
WM3629 cells (#WM3629-01-0001) are obtained from Rockland Immunochemicals Inc (Gilbertsville, PA). Briefly, cells were grown in MCDB 153 medium (Sigma, #M7403, St. Louis, MO) supplemented with 20% Leibovitz's L-15 (ThermoFisher #11415-064, Waltham, MA), 2% heat inactivated fetal bovine serum (ThermoFisher, #A3840001, Waltham, MA), 5 μg/mL Insulin (Bovine Pancreas) (Sigma, #I0516, St. Louis, MO), 1.68 mM Calcium Chloride (Sigma, #C-34006, St. Louis, MO) and 1% Penicillin/Streptomycin/L-Glutamine (ThermoFisher #10378016, Waltham, MA) at 37° C., 5% CO2, and 95% humidity. Cells are expanded until reaching 70-95% confluency at which point they are subcultured or harvested for assay use. A serial dilution of test compound is dispensed into a 96-well black clear bottom plate in triplicate. Four thousand five hundred cells are added per well in 200 μL complete growth medium in the 96-well plate. Plates are incubated for 67-72 hours at 37° C., 5% CO2, and 95% humidity. At the end of the incubation, 40 μL of a 440 μM solution of resazurin (Sigma, #199303, St. Louis, MO) in PBS is added to each well of the plate and plates are incubated for an additional 6-7 hours at 37° C., 5% CO2, and 95% humidity. Plates are read on a Synergy2 or equivalent reader (Biotek, Winooski VT) using an excitation of 540 nm and an emission of 600 nm. Data is analyzed using Prism software (GraphPad, San Diego, CA) to calculate IC50 values.
In the case of `Cc1ccc(NC(=O)N2CC[C@H](C(F)(F)F)C2)cc1-c1cccc(-c2cc(NC(=O)C3CC3)ncn2)c1` [Example 200], the IC50 was at most 100 nM.

For `Cc1ccc(NC(=O)N2CC[C@@H](C(F)(F)F)C2)cc1-c1cccc(-c2cc(NC(=O)C3CC3)ncn2)c1` [Example 201], the IC50 is at most 100 nM.

As to `Cc1ccc(NC(=O)N2CC[C@@H](C(C)C)C2)cc1-c1cncc(-c2cc(NC(=O)C3CC3)ncn2)c1` [Example 217], the IC50 was at most 100 nM.

Regarding `Cc1ccc(NC(=O)N2CC[C@H](C(C)C)C2)cc1-c1cncc(-c2cc(NC(=O)C3CC3)ncn2)c1` [Example 221], the IC50 is at most 100 nM.

Another assay deals with Miapaca-2 cells. The experiment in a line: MiaPaca-2 combination cell proliferation assay (1) with cobimetinib, 96-well. It counts as cell-based. As to conditions: inhibition of cell proliferation, read-out: MiaPaca-2 Combo (1) IC50. The procedure:
MiaPaca-2 Combination Cell proliferation Assay (1)
Miapaca-2 cells (catalog #CRL-1420) are obtained from the American Type Culture Collect (ATCC, Manassas, VA). Briefly, cells were grown in DMEM supplemented with 10% characterized fetal bovine serum (Invitrogen, Carlsbad, CA), 2.5% New Zealand sourced horse serum and 1% Penicillin/Streptomycin/L-Glutamine at 37° C., 5% CO2, and 95% humidity. Cells are expanded until reaching 70-95% confluency at which point they are subcultured or harvested for assay use. A serial dilution of test compound was dispensed into multiple 96-well black clear bottom plates in triplicate. A serial dilution of complete growth medium containing cobimetinib was prepared at twice the final concentration and 100 μL was dispensed across the test compound titration in triplicate. Three thousand cells are added per well in 100 μL complete growth medium in each 96-well plate. Plates are incubated for 67-72 hours at 37° C., 5% CO2, and 95% humidity. At the end of the incubation, 40 μL of a 440 μM solution of resazurin (Sigma, St. Louis, MO) in PBS is added to each well of the plate and plates are incubated for an additional 5-7 hours at 37° C., 5% CO2, and 95% humidity. Plates are read on a Synergy2 or equivalent reader (Biotek, Winooski VT) using an excitation of 540 nm and an emission of 600 nm. Drug synergy was assessed via BLISS analysis in the Combenefit software (Cancer Research UK Cambridge Institute, Cambridge, UK). Data is analyzed using Prism software (GraphPad, San Diego, CA) to calculate IC50 values. Shifts in test compound IC50 values are reported from top-constrained combination therapy curves.
With `Cc1cc(F)c(NC(=O)NCCC2(C(F)(F)F)CC2)cc1-c1cc(OCCO)nc(C2CCOCC2)c1` [Example 24], the IC50 is at most 100 nM.

In the case of `CC(=O)Nc1cc(-c2cc(-c3cc(NC(=O)NCCC4(C)CC4)c(F)cc3C)cc(OCCO)n2)ccn1` [Example 33], the IC50 was at most 100 nM.

Consider `CC(=O)Nc1cc(-c2cc(-c3cc(NC(=O)NCCC4(C)CC4)c(F)cc3C)cc(C)n2)ccn1` [Example 55], for which the IC50 is at most 100 nM.

As for `CC(=O)Nc1cc(-c2cc(-c3cc(NC(=O)NC4CCC(F)(F)CC4)c(F)cc3C)cc(OCCO)n2)ccn1` [Example 63], the IC50 was at most 100 nM.

For the compound `Cc1cc(F)c(NC(=O)NCCC2(C)CC2)cc1-c1cc(OCCO)nc(-c2ccnc(NC(=O)C3CC3)c2)c1` [Example 76], the IC50 lay in the range of 100 to 500 nM.

Take `Cc1ccc(NC(=O)N2CC[C@H](C(F)(F)F)C2)cc1-c1cccc(-c2cc(NC(=O)C3CC3)ncn2)c1` [Example 200]: the IC50 is 100 to 500 nM.

Turning to `Cc1ccc(NC(=O)N2CC[C@@H](C(F)(F)F)C2)cc1-c1cccc(-c2cc(NC(=O)C3CC3)ncn2)c1` [Example 201], the IC50 was 100 to 500 nM.
